From patent US20070161542A1, “Ptb1b photoprobes” (priority 2003, published 2007)

Target: T1, PTP1B in HEPG2 whole cells (Homo sapiens, UniProt P18031)
T1 construct: Labeling of Endogenous PTP1B in HEPG2 Cell Lysate; endogenous in cells; host or cells: HepG2 (human hepatoma, ATCC)
T1 sequence (P18031 1-435): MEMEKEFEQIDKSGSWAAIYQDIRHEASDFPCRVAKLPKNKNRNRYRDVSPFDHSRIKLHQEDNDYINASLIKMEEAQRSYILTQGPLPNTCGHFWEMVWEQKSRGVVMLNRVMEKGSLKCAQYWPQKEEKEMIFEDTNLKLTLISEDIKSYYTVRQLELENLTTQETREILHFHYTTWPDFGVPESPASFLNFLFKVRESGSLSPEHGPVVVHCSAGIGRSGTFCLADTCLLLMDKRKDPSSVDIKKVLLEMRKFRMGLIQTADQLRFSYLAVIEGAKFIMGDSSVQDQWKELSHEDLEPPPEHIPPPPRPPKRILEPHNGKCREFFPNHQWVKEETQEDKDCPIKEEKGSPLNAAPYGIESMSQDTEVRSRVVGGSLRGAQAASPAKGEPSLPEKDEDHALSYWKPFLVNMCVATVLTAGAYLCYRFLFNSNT
Assay: Labeling of endogenous PTP1B in HEPG2 whole cells
Format: cell-based
Details: mass balance on total counts, 5 nM probe
Procedure: Human hepatoma cells (HepG2) were obtained from American Type Culture Collection and maintained in regular MEM containing 10% FBS and 1% antibiotics at 37° C., 5% CO2. For photoprobe experiments, cells (2×10^4) were grown until 80% confluence in 6-well plates and serum starved for 14 hours by incubating in MEM with 1% antibiotics without FBS.
HEPG2 cells were grown to ˜80% confluency in 6-well dishes. Media was removed and washed twice with Hanks-Hepes buffer (15 mM Hepes). For HepG2 lysate studies, the cells were lysed on ice for 15 minutes using 1 ml lysate buffer (50 mM Tris pH 7.4, 150 mM NaCl, 1% Triton X-100, 5 mM EDTA, 5 mM DTT, Complete™ protease inhibitor tablet). […] The protein concentration of the lysates was determined by the method of Lowry (detergent compatible).
PTP1B was immunoprecipitated from HepG2 cell lysates (1 ml of 1 mg/ml) using 3.5 ug of anti-PTP1B antibody (BDT) overnight at 4° C. with rotation. […] For autoradiogram detection of radioactivity, the gels were dried and exposed to BioMax MS film with an intensifying screen at −80° C. Protein bands were quantified using a scanning densitometer (Bio-Rad).
The compound of Example 1 at various concentrations was incubated with HEPG2 whole cells for 30 min and was irradiated on ice for 15 min. The cells were then lysed, and labeled PTP1B was measured after immunoprecipitation. […]

NC(=O)[C@H](Cc1ccc(C(F)(F)P(=O)(O)O)c(Br)c1)NC(=O)[C@H](Cc1ccc(C(F)(F)P(=O)(O)O)c(Br)c1)NC(=O)c1cc(I)cc(C2(C(F)(F)F)N=N2)c1 [Example 1, Tetraamnionium 3-bromo-4-(difluoro(phosphonato)methyl)-N-(3-iodo-5-(3-(trifluoromethyl)-3H-diaziren-3-yl)benzoyl)-L-phenylalanyl-3-bromo-4-(difluoro(phosphonato)methyl)-L-phenylalaninamide]
cell permeability (share of probe associated with the cell): around 10%
